{"source": "patent US8394759B2", "about": "“Transdermal delivery of medicaments with combinations of cetylated fatty ester penetrant complexes” (Cymbiotics, Inc., priority 2008, dated 2013)", "key": {"[1]": {"test": "Permeation in the CFEP formulations", "conditions": "in any of the three formulations of Example 3"}, "[2]": {"conditions": "free base; cited from earlier work"}, "[3]": {"conditions": "oral; cited from earlier work"}, "patients": {"test_system": "patients", "conditions": "oral formulations; cited from earlier work"}, "arthritic patients": {"test_system": "arthritic patients", "test": "Topical cetylated fatty ester complexes with rubefacients versus placebo base, joint functionality and pain", "format": "in vivo, human", "conditions": "eucalyptus oil 1% to 5%, camphor 1-7% in the carrier formulation", "from_the_text": "The composition of the invention provides for the administration of permeants with anti-arthritic properties. A topical application consisting of the cetylated fatty ester complexes in concentrations of 5% to 20% with rubefacients (such as methyl salicylate, menthol and for some variations capsaicin can be applied to affected areas of arthritic patients). The permeants were at concentrations ranging from 1-30%. The carrier formulation consisted of a penetrant group of 8 cetyl fatty esters (4-9%; cetyl decanoate, cetyl laurate, cetyl myristate, cetyl myristoleate, cetyl oleate, cetyl palmitate, cetyl palmitoleate and cetyl stearate) with propylene glycol as the polar solvent (12%), in the described cream base at a pH of 6.5. One variation of carrier formulation is also an anti-inflammatory and is used topically to treat joint pain and musculoskeletal pain and other types of pains in arthritis (Kraemer W J et al. 2004 J Rheumatology 31:767-74; Kraemer W J et al. 2005 J Strength and Conditioning Res 19: 475-80 and Sharan et al. 2009, submitted for publication), The preferred polar solvent is propylene glycol. […]"}, "mouse skin": {"test_system": "mouse skin", "test": "Transdermal diazepam in CFEP-Complex formulation delivered to mouse skin", "format": "in vivo", "conditions": "single application to mouse skin in 4-9% CFEP-Complex formulation; preliminary, 'may provide'", "procedure": "A formulation for transdermal delivery is a novel format for diazepam or lorazepam or clonazepam, and utilizes the lipophilic properties of each molecule. In one example diazepam is administered in 3 doses, namely 10 mg/gram, 25 mg/gram and 50 mg/gram using a 4-9% CFEP-Complex carrier formulation consisting of cetyl decanoate, cetyl laurate, cetyl myristate, cetyl myristoleate, cetyl oleate, cetyl palmitate, cetyl palmitoleate and cetyl stearate. The polar solvent used is propylene glycol (12%) in the described cream base at a pH of 6.5. A pH range of 6-7 is effective and tocopherol acetate is the antioxidant at 1%. […] The permeant is first finely emulsified in the CFEP-Complex and polar solvent prior to addition of the cream base. A single application of diazepam delivered to mouse skin in this formulation may provide pronounced activity for 5-8 hours. […] Pregabalin in a topical format is also an excellent anti-convulsant and useful in the treatment of seizure already described in examples 4 and 5 above."}, "[4]": {"conditions": "oral; cited from earlier work", "remark": "listed apart in the source"}, "[5]": {"conditions": "intravenous injection, 5 mg; cited from earlier work"}}, "data": [{"smiles": "O=C(O)CCCCC1CCSS1", "note": "(stereo not drawn) [Alpha lipoic acid]", "values": [{"measurement": "permeation", "setting": "[1]", "result": "permeates well"}]}, {"smiles": "CNC1(c2ccccc2Cl)CCCCC1=O", "note": "(centres unmarked) [Ketamine, 2-(2-chlorophenyl)-2-(methylamino)-cyclohexanone]", "values": [{"measurement": "lipid solubility", "setting": "[2]", "result": "10 times that of thiopentone"}]}, {"smiles": "CC(C)C[C@H](CN)CC(=O)O", "note": "[Pregabalin]", "values": [{"measurement": "bioavailability", "setting": "[3]", "result": "more than 90%"}, {"measurement": "adverse reactions such as drowsiness and dizziness, share of the patients", "setting": "patients", "result": "more than 10%"}]}, {"smiles": "CC12CCC(CC1=O)C2(C)C", "note": "(centres unmarked) [camphor]", "values": [{"measurement": "other rubefacients found to be effective", "setting": "arthritic patients", "result": "effective"}]}, {"smiles": "CN1C(=O)CN=C(c2ccccc2)c2cc(Cl)ccc21", "note": "[diazepam]", "values": [{"measurement": "duration of pronounced activity", "setting": "mouse skin", "result": "5 to 8", "unit": "h"}]}, {"smiles": "C/C1=C2/[N-][C@H]([C@H](CC(N)=O)[C@@]2(C)CCC(=O)NC[C@@H](C)OP(=O)([O-])O[C@H]2[C@@H](O)[C@@H](n3cnc4cc(C)c(C)cc43)O[C@@H]2CO)[C@]2(C)N=C(/C(C)=C3N=C(/C=C4N=C1[C@@H](CCC(N)=O)C\\4(C)C)[C@@H](CCC(N)=O)[C@]\\3(C)CC(N)=O)[C@@H](CCC(N)=O)[C@]2(C)CC(N)=O.[CH3-].[Co+3]", "note": "[methylcobalamin]", "values": [{"measurement": "rate of absorption by passive diffusion", "setting": "[4]", "result": "1-2 % of the ingested material"}]}, {"smiles": "CCN(CC)CC#CCOC(=O)C(O)(c1ccccc1)C1CCCCC1", "note": "(centres unmarked) [oxybutynin]", "values": [{"measurement": "Tmax", "setting": "[5]", "result": 15, "unit": "min"}]}]}
